# According to ChEMBL document CHEMBL1156896, “Synthesis and structure-activity relationships of a series of 3-aryl-4-isoxazolecarboxamides as a new class of TGR5 agonists” (Bioorg Med Chem Lett, 2010):
# Columns and labels:
# [1] = Permeability in artificial membrane assay; assay type: ADME, cell membranes; settings: PAMPA; read-out: permeability
# [2] = in vitro; settings: dog, MDCK
smiles,measurement,setting,value
CCN(C(=O)c1c(-c2ccccc2Cl)noc1C)c1cccc(Cl)c1,Papp,[1],31 ×10⁻⁶ cm/s
same,Papp,[2],44.8 ×10⁻⁶ cm/s
